Assay results taken from patent publication US12655150B2 (Cedilla Therapeutics, Inc., priority 2021, dated 2026).

system: NCI-H226; experiment: 72H TEAD Proliferation Assay (Cell Titer Glo 2.0); format: cell-based; conditions: CTG 2.0, cell line not given (NCI-H226 responsive, NCI-H28 non-responsive)
How it was run: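 NF2-deficient NCI-H226 mesothelioma cells, TEAD-dependent, treated 72 h; NF2-wild-type NCI-H28 serves as the TEAD-independent counter-screen for off-target cytotoxicity. Viable cells quantified by CellTiter-Glo 2.0 luminescence; background and time-zero signal subtracted, GI50 from nonlinear dose-response fit.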

**Q.** With COc1cc(-c2ccc(C(F)(F)F)cc2)nc2cc(C(=O)N3CCC3CO)ccc12 (single isomer, unassigned) [I-373, (2-(hydroxymethyl)azetidin-1-yl) (4-methoxy-2-(4-(trifluoromethyl)phenyl)quinolin-7-yl)methanone] as the molecule, how does the GI50 read?
**A.** ≤ 1 µM

same assay, conditions: Homo sapiens, NCI-H226, 72 h, CTG 2.0, cell line not given (NCI-H226 responsive, NCI-H28 non-responsive)

**Q.** How did the GI50 turn out when C=CC(=O)Nc1ccc2cc(C)c(-c3ccc(C(C)(C)C)cc3)nc2c1 [I-98, N-(2-(4-(tert-butyl)phenyl)-3-methylquinolin-7-yl)acrylamide] was run?
**A.** ≤ 1 µM

**Q.** COc1cc(-c2ccc(C(F)(F)F)cc2)nc2cc(NS(C)(=O)=O)ccc12 [I-383, N-(4-methoxy-2-(4-(trifluoromethyl)phenyl)quinolin-7-yl)methanesulfonamide] was tested. Which GI50 did it give?
**A.** 1 to 5 µM

**Q.** For O=C(O)c1ccc2ccc(-c3ccc(C(F)(F)F)cc3)nc2c1 [I-403, 2-(4-(trifluoromethyl)phenyl)quinoline-7-carboxylic acid], which GI50 is on record?
**A.** 1 to 5 µM

**Q.** Which GI50 does the source give for CC(C)(C)c1ccc(-c2nc3cc(C(=O)O)ccc3n3cc(F)cc23)cc1 [I-108, 4-(4-(tert-Butyl)phenyl)-2-fluoropyrrolo[1,2-a]quinoxaline-7-carboxylic acid] here?
**A.** 1 to 5 µM

**Q.** For O=C(O)c1ccc2c(c1)nc(-c1ccc(Cl)cc1)c1cccn12 [I-48, 4-(4-Chlorophenyl)pyrrolo[1,2-a]quinoxaline-7-carboxylic acid], which GI50 is on record?
**A.** > 10 µM

**Q.** CN(C)C(=O)c1ccc2c(c1)nc(-c1ccc(C(C)(C)C)cc1)c1nccn12 [I-74, 4-(4-(tert-Butyl)phenyl)-N,N-dimethylimidazo[1,2-a]quinoxaline-7-carboxamide] was tested. Which GI50 did it give?
**A.** 5 to 10 µM

**Q.** How did the GI50 turn out when CC[C@H](CO)NC(=O)c1ccc2c(OC)cc(-c3ccc(C(F)(F)F)cc3C)nc2c1 [I-336, (R)—N-(1-hydroxybutan-2-yl)-4-methoxy-2-(2-methyl-4-(trifluoromethyl)phenyl)quinoline-7-carboxamide] was run?
**A.** ≤ 1 µM

**Q.** With COc1cc(-c2ccc(C(F)(F)F)cc2)nc2cc(C(=O)N3CCC[C@@H]3CO)ccc12 [I-371, (R)-(2-(hydroxymethyl)pyrrolidin-1-yl) (4-methoxy-2-(4-(trifluoromethyl)phenyl)quinolin-7-yl)methanone] as the molecule, how does the GI50 read?
**A.** 5 to 10 µM

**Q.** With C=CC(=O)NCc1nc(-c2ccc(C(F)(F)F)cc2)c2[nH]ccc2n1 [I-450, N-((4-(4-(trifluoromethyl)phenyl)-5H-pyrrolo[3,2-d]pyrimidin-2-yl)methyl)acrylamide] as the molecule, how does the GI50 read?
**A.** 5 to 10 µM

**Q.** FC(F)(F)c1ccc(-c2nc(C3CC(Br)=NO3)cn3ccnc23)cc1 (stereo not shown) [I-176, 3-bromo-5-(8-(4-(trifluoromethyl)phenyl)imidazo[1,2-a]pyrazin-6-yl)-4,5-dihydroisoxazole] was tested. Which GI50 did it give?
**A.** ≤ 1 µM

**Q.** With CC[C@H](CO)NC(=O)c1ccc2c(OC)cc(-c3c(Cl)cc(C(F)(F)F)cc3Cl)nc2c1 [I-398, (R)-2-(2,6-dichloro-4-(trifluoromethyl)phenyl)-N-(1-hydroxybutan-2-yl)-4-methoxyquinoline-7-carboxamide] as the molecule, how does the GI50 read?
**A.** 1 to 5 µM

**Q.** How did the GI50 turn out when COc1cc(-c2ccc(C(F)(F)F)cc2)nc2cc(C(=O)N[C@@H](C)c3cccc(C(=O)O)c3)ccc12 [I-347, (S)-3-(1-(4-methoxy-2-(4-(trifluoromethyl)phenyl)quinoline-7-carboxamido)ethyl)benzoic acid] was run?
**A.** 5 to 10 µM

**Q.** How did the GI50 turn out when Cc1cc(-c2ccc(C(F)(F)F)cc2)nc2cc(C(=O)N[C@H](C)CO)ccc12 [I-261, (R)—N-(1-hydroxypropan-2-yl)-4-methyl-2-(4-(trifluoromethyl)phenyl)quinoline-7-carboxamide] was run?
**A.** ≤ 1 µM

**Q.** CC[C@H](CO)NC(=O)c1ccc2c(OC)cc(-c3ccc(C(F)(F)F)cn3)nc2c1 [I-358, (R)—N-(1-hydroxybutan-2-yl)-4-methoxy-2-(5-(trifluoromethyl)pyridin-2-yl)quinoline-7-carboxamide] was tested. Which GI50 did it give?
**A.** ≤ 1 µM

**Q.** O=C(O)c1ccc2c(c1)nc(N1CCC(F)(F)C1)c1cccn12 [I-11, 4-(3,3-Difluoropyrrolidin-1-yl)pyrrolo[1,2-a]quinoxaline-7-carboxylic acid] was tested. Which GI50 did it give?
**A.** > 10 µM

**Q.** With COc1cc(-c2ccc(C(F)(F)F)cc2)nc2cc(C(=O)N[C@@H](C)c3ccccc3)ccc12 [I-351, (S)-4-methoxy-N-(1-phenylethyl)-2-(4-(trifluoromethyl)phenyl)quinoline-7-carboxamide] as the molecule, how does the GI50 read?
**A.** ≤ 1 µM

**Q.** With CC(=O)c1cc(-c2ccc(C(F)(F)F)cc2)nc2cc(C(=O)O)ccc12 [I-396, 4-acetyl-2-(4-(trifluoromethyl)phenyl)quinoline-7-carboxylic acid] as the molecule, how does the GI50 read?
**A.** 1 to 5 µM

**Q.** For Cc1cn2cc(CNC(=O)/C=C/CF)nc(-c3ccc(C(F)(F)F)cc3)c2n1 [I-248, (E)-4-fluoro-N-((2-methyl-8-(4-(trifluoromethyl)phenyl)imidazo[1,2-a]pyrazin-6-yl)methyl)but-2-enamide], which GI50 is on record?
**A.** ≤ 1 µM

**Q.** How did the GI50 turn out when Cc1cc(C(=O)O)cc2nc(-c3ccc(C(C)(C)C)cc3)c3cccn3c12 [I-321, 4-(4-(Tert-butyl)phenyl)-9-methylpyrrolo[1,2-a]quinoxaline-7-carboxylic acid] was run?
**A.** 1 to 5 µM

**Q.** O=C(O)c1ccc2c(c1)nc(N1CCC3(CC1)CC3)c1cccn12 [I-4, 4-(6-Azaspiro[2.5]octan-6-yl)pyrrolo[1,2-a]quinoxaline-7-carboxylic acid] was tested. Which GI50 did it give?
**A.** ≤ 1 µM

**Q.** CN(C)CCNC(=O)c1ccc2c(c1)nc(-c1ccc(C(C)(C)C)cc1)c1cccn12 [I-188, 4-(4-(tert-butyl)phenyl)-N-(2-(dimethylamino)ethyl)pyrrolo[1,2-a]quinoxaline-7-carboxamide] was tested. Which GI50 did it give?
**A.** 1 to 5 µM

**Q.** With C=CC(=O)NCc1cn2ccnc2c(-c2ccc(C(F)(F)F)cn2)n1 [I-313, N-((8-(5-(trifluoromethyl)pyridin-2-yl)imidazo[1,2-a]pyrazin-6-yl)methyl)acrylamide] as the molecule, how does the GI50 read?
**A.** 1 to 5 µM

**Q.** Which GI50 does the source give for O=C(O)c1ccc2c(c1)nc(NCCC(F)(F)F)c1cccn12 [I-107, 4-((3,3,3-Trifluoropropyl)amino)pyrrolo[1,2-a]quinoxaline-7-carboxylic acid] here?
**A.** > 10 µM

**Q.** Which GI50 does the source give for CC(C)(C)c1ccc(-c2nc3cc(S(N)(=O)=O)ccc3n3cccc23)cc1 [I-311, 4-(4-(tert-butyl)phenyl)pyrrolo[1,2-a]quinoxaline-7-sulfonamide] here?
**A.** 1 to 5 µM

**Q.** How did the GI50 turn out when COc1c(C)c(-c2ccc(C(F)(F)F)cc2)nc2cc(C(=O)N[C@H](C)CO)ccc12 [I-431, (R)—N-(1-hydroxypropan-2-yl)-4-methoxy-3-methyl-2-(4-(trifluoromethyl)phenyl)quinoline-7-carboxamide] was run?
**A.** 5 to 10 µM

**Q.** CC(C)(C)c1ccc(-c2cnc3ccc(C#N)cc3n2)cc1 [I-159, 3-(4-(tert-butyl)phenyl)quinoxaline-6-carbonitrile] was tested. Which GI50 did it give?
**A.** > 10 µM

**Q.** For O=C(O)c1ccc2c(c1)nc(-c1cnc(C(F)(F)F)cn1)c1cccn12 [I-198, 4-(5-(trifluoromethyl)pyrazin-2-yl)pyrrolo[1,2-a]quinoxaline-7-carboxylic acid], which GI50 is on record?
**A.** 1 to 5 µM

**Q.** FC(F)(F)c1ccc(-c2nc3cc(-c4nnn[nH]4)ccc3n3cccc23)cc1 [I-184, 7-(1H-tetrazol-5-yl)-4-(4-(trifluoromethyl)phenyl)pyrrolo[1,2-a]quinoxaline] was tested. Which GI50 did it give?
**A.** 5 to 10 µM

**Q.** Which GI50 does the source give for Cc1cc(-c2ccc(OC(F)(F)F)cc2)nc2cc(C(=O)O)ccc12 [I-256, 4-methyl-2-(4-(trifluoromethoxy)phenyl)quinoline-7-carboxylic acid] here?
**A.** 1 to 5 µM

**Q.** For C=C(F)C(=O)NCc1cn2ccnc2c(-c2ccc(C(F)(F)F)cc2)n1 [I-178, 2-Fluoro-N-((8-(4-(trifluoromethyl)phenyl)imidazo[1,2-a]pyrazin-6-yl)methyl)acrylamide], which GI50 is on record?
**A.** ≤ 1 µM
